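Method: 48-hour compound exposure of cells in 96-well plates, five concentrations, linear interpolation of endpoints. Here, GI50 denotes the concentration required for 50% inhibition of growth.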 The source made the active and inactive calls. Cut-off read from the data, not from the text of the source: active = GI50 up to about 1.1 µM and inactive = higher.
Tests used:
Assay in all cases: NCI-60 cell line screen, 48 h
786-0 = system: 786-0
A549 = system: A549
ACHN = system: ACHN
BT-549 = system: BT-549
CAKI-1 = system: CAKI-1
CCRF-CEM = system: CCRF-CEM
COLO 205 = system: COLO 205
DU-145 = system: DU-145
EKVX = system: EKVX
HCC 2998 = system: HCC 2998
HCT-116 = system: HCT-116
HCT-15 = system: HCT-15
HL-60 = system: HL-60
HOP-62 = system: HOP-62
HOP-92 = system: HOP-92
HT-29 = system: HT-29
K562 = system: K562
KM12 = system: KM12
LOX IMVI = system: LOX IMVI
M14 = system: M14
MCF7 = system: MCF7
MDA-MB-231 = system: MDA-MB-231
MDA-MB-435 = system: MDA-MB-435
MDA-N = system: MDA-N
MOLT-4 = system: MOLT-4
Malme-3M = system: Malme-3M
NCI-H23 = system: NCI-H23
NCI-H460 = system: NCI-H460
NCI/ADR-RES = system: NCI/ADR-RES
OVCAR-3 = system: OVCAR-3
OVCAR-4 = system: OVCAR-4
OVCAR-5 = system: OVCAR-5
OVCAR-8 = system: OVCAR-8
RPMI-8226 = system: RPMI-8226
SF-295 = system: SF-295
SK-MEL-28 = system: SK-MEL-28
SK-MEL-2 = system: SK-MEL-2
SK-MEL-5 = system: SK-MEL-5
SN12C = system: SN12C
SNB-19 = system: SNB-19
SR = system: SR
TK-10 = system: TK-10
U-251 = system: U-251
UACC-257 = system: UACC-257
UO-31 = system: UO-31

O=C(O)Cn1nnc2c(=O)[nH][nH]c(=O)c21
GI50 (786-0): > 100 µM (inactive) | GI50 (A549): > 100 µM (inactive) | GI50 (ACHN): > 100 µM (inactive) | GI50 (BT-549): > 100 µM (inactive) | GI50 (CAKI-1): > 100 µM (inactive) | GI50 (CCRF-CEM): > 100 µM (inactive) | GI50 (COLO 205): > 100 µM (inactive) | GI50 (DU-145): > 100 µM (inactive) | GI50 (EKVX): > 100 µM (inactive) | GI50 (HCC 2998): > 100 µM (inactive) | GI50 (HCT-116): > 100 µM (inactive) | GI50 (HCT-15): > 100 µM | GI50 (HL-60): > 100 µM (inactive) | GI50 (HOP-62): > 100 µM (inactive) | GI50 (HOP-92): > 100 µM (inactive) | GI50 (HT-29): > 100 µM (inactive) | GI50 (K562): > 10 µM (inactive) | GI50 (KM12): > 100 µM (inactive) | GI50 (LOX IMVI): > 100 µM (inactive) | GI50 (M14): > 100 µM (inactive) | GI50 (MCF7): > 100 µM (inactive) | GI50 (MDA-MB-231): > 100 µM (inactive) | GI50 (MDA-MB-435): > 100 µM (inactive) | GI50 (MDA-N): > 100 µM (inactive) | GI50 (MOLT-4): > 10 µM (inactive) | GI50 (Malme-3M): > 100 µM (inactive) | GI50 (NCI-H23): > 100 µM (inactive) | GI50 (NCI-H460): > 100 µM (inactive) | GI50 (NCI/ADR-RES): > 100 µM (inactive) | GI50 (OVCAR-3): > 100 µM (inactive) | GI50 (OVCAR-4): > 10 µM (inactive) | GI50 (OVCAR-5): > 100 µM (inactive) | GI50 (OVCAR-8): > 100 µM (inactive) | GI50 (RPMI-8226): > 100 µM (inactive) | GI50 (SF-295): > 100 µM (inactive) | GI50 (SK-MEL-28): > 100 µM (inactive) | GI50 (SK-MEL-2): > 100 µM (inactive) | GI50 (SK-MEL-5): > 100 µM (inactive) | GI50 (SN12C): > 100 µM (inactive) | GI50 (SNB-19): > 100 µM (inactive) | GI50 (SR): > 100 µM (inactive) | GI50 (TK-10): > 100 µM (inactive) | GI50 (U-251): > 100 µM (inactive) | GI50 (UACC-257): > 100 µM (inactive) | GI50 (UO-31): > 100 µM (inactive)

— ChEMBL document CHEMBL1201862, “PubChem BioAssay data set” (2004)
